Measurements taken from PubChem BioAssay (NCI).
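Exposure lasted 48 hours, with cells grown in 96-well plates and compounds tested at five concentrations. At the TGI there is no net growth.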

How the values were obtained:
Test in all cases: DTP human tumour cell line panel, 48 h
[1] = system: LOX IMVI melanoma
[2] = system: COLO 205 colon
[3] = system: DLD-1 colon
[4] = system: EKVX NSCLC
[5] = system: RXF 393 renal
[6] = system: HCC-2998 colon
[7] = system: SNB-75 CNS
[8] = system: HT29 colon
[9] = system: M14 melanoma
[10] = system: OVCAR-8 ovarian
[11] = system: CCRF-CEM leukemia
[12] = system: NCI-H522 lung
[13] = system: DMS 273 small cell lung
[14] = system: HCT-116 colon
[15] = system: CAKI-1 renal
[16] = system: HOP-92 NSCLC
[17] = system: SK-MEL-28 melanoma
[18] = system: U251 CNS
[19] = system: HOP-18 NSCLC
[20] = system: MOLT-4 leukemia
[21] = system: SK-MEL-2 melanoma
[22] = system: KM20L2 colon
[23] = system: LXFL 529 NSCLC
[24] = system: RPMI-8226 leukemia
[25] = system: UO-31 renal
[26] = system: HL-60(TB) leukemia
[27] = system: RXF-631 renal
[28] = system: HOP-62 NSCLC
[29] = system: UACC-62 melanoma
[30] = system: OVCAR-3 ovarian
[31] = system: SK-OV-3 ovarian
[32] = system: SNB-78 CNS
[33] = system: SF-295 CNS
[34] = system: A549 NSCLC
[35] = system: SF-539 CNS
[36] = system: SK-MEL-5 melanoma
[37] = system: IGROV1 ovarian
[38] = system: NCI-H226 lung
[39] = system: OVCAR-5 ovarian
[40] = system: 786-0 renal
[41] = system: SNB-19 CNS
[42] = system: SW-620 colon
[43] = system: SR leukemia
[44] = system: SN12C renal
[45] = system: TK-10 renal
[46] = system: M19-MEL melanoma
[47] = system: KM12 colon
[48] = system: NCI-H23 lung
[49] = system: K-562 leukemia
[50] = system: XF 498 CNS
[51] = system: NCI-H460 lung
[52] = system: SF-268 CNS
[53] = system: ACHN renal
[54] = system: UACC-257 melanoma
[55] = system: OVCAR-4 ovarian
[56] = system: HCT-15 colon
[57] = system: MALME-3M melanoma
[58] = system: A498 renal

In the case of Cc1ccc(S(=O)(=O)O/N=C2\CCC\C2=C/c2ccccc2)cc1, the TGI [1] is reported as greater than 100 µM, the TGI [2] is reported as 29.8 µM and the TGI [3] is reported as 46.3 µM. It also gave a TGI [4] of 35.3 µM, a TGI [5] of 44 µM and a TGI [6] of 31.6 µM. It also gave a TGI [7] of 44.1 µM, a TGI [8] of 60.1 µM and a TGI [9] of 47.4 µM. It also gave a TGI [10] greater than 100 µM, a TGI [11] greater than 100 µM and a TGI [12] of 37.8 µM. It also gave a TGI [13] greater than 100 µM, a TGI [14] of 25.3 µM and a TGI [15] of 36.8 µM. For the same molecule, the TGI [16] was 34.5 µM, the TGI [17] was 24.1 µM and the TGI [18] was 88.6 µM. The TGI [19] was 34.6 µM, the TGI [20] was 29.2 µM and the TGI [21] was 30.8 µM. For the same molecule, the TGI [22] was 49 µM, the TGI [23] was 83.9 µM and the TGI [24] was 37.3 µM. It also gave a TGI [25] of 42.5 µM, a TGI [26] greater than 100 µM and a TGI [27] of 36.5 µM. The TGI [28] was greater than 100 µM, the TGI [29] was 27.2 µM and the TGI [30] was 32.8 µM. For the same molecule, the TGI [31] was greater than 100 µM, the TGI [32] was 13 µM and the TGI [33] was 50.1 µM. For the same molecule, the TGI [34] was greater than 100 µM, the TGI [35] was 43.5 µM and the TGI [36] was 28.4 µM. The TGI [37] was greater than 100 µM, the TGI [38] was 37.7 µM and the TGI [39] was 42.6 µM. It also gave a TGI [40] of 67.9 µM, a TGI [41] greater than 100 µM and a TGI [42] greater than 100 µM. For the same molecule, the TGI [43] was 43.4 µM, the TGI [44] was greater than 100 µM and the TGI [45] was 30.4 µM. For the same molecule, the TGI [46] was 44.3 µM, the TGI [47] was 32.6 µM and the TGI [48] was 38.9 µM. The TGI [49] was greater than 100 µM, the TGI [50] was 33.3 µM and the TGI [51] was 47.9 µM. For the same molecule, the TGI [52] was 27.7 µM, the TGI [53] was 23.3 µM and the TGI [54] was 31.4 µM. It also gave a TGI [55] of 58.6 µM and a TGI [56] of 73.8 µM.

Work on O=C1c2ccccc2C(=O)N1C/C=N/NS(=O)(=O)c1ccc2ccccc2c1 yielded a TGI [57] greater than 100 µM, a TGI [2] greater than 100 µM and a TGI [3] greater than 100 µM. The TGI [4] was greater than 100 µM, the TGI [6] was greater than 100 µM and the TGI [7] was greater than 100 µM. It also gave a TGI [8] greater than 100 µM, a TGI [9] greater than 100 µM and a TGI [10] greater than 100 µM. The TGI [11] was greater than 100 µM, the TGI [12] was greater than 100 µM and the TGI [13] was greater than 100 µM. It also gave a TGI [14] greater than 100 µM, a TGI [15] greater than 100 µM and a TGI [18] greater than 100 µM. The TGI [19] was greater than 100 µM, the TGI [20] was greater than 100 µM and the TGI [21] was greater than 100 µM. The TGI [22] was greater than 100 µM, the TGI [23] was greater than 100 µM and the TGI [24] was greater than 100 µM. The TGI [25] was greater than 100 µM, the TGI [26] was greater than 100 µM and the TGI [27] was greater than 100 µM. It also gave a TGI [28] greater than 100 µM, a TGI [29] greater than 100 µM and a TGI [30] greater than 100 µM. The TGI [31] was greater than 100 µM, the TGI [32] was greater than 100 µM and the TGI [33] was greater than 100 µM. It also gave a TGI [34] greater than 100 µM, a TGI [35] greater than 100 µM and a TGI [36] greater than 100 µM. For the same molecule, the TGI [37] was greater than 100 µM, the TGI [38] was greater than 100 µM and the TGI [39] was greater than 100 µM. It also gave a TGI [40] greater than 100 µM, a TGI [41] greater than 100 µM and a TGI [42] greater than 100 µM. It also gave a TGI [43] greater than 100 µM, a TGI [44] greater than 100 µM and a TGI [45] greater than 100 µM. It also gave a TGI [46] greater than 100 µM, a TGI [47] greater than 100 µM and a TGI [48] greater than 100 µM. The TGI [58] was greater than 100 µM, the TGI [49] was greater than 100 µM and the TGI [50] was greater than 100 µM. It also gave a TGI [51] greater than 100 µM, a TGI [53] greater than 100 µM and a TGI [54] greater than 100 µM. It also gave a TGI [55] greater than 100 µM and a TGI [56] greater than 100 µM.
